Patent US7507739B2, “6-[(substituted)phenyl]triazolopyrimidines as anticancer agents” (Wyeth, priority 2003, dated 2009)
Marks after values point to notes of the source that are not given here.

Columns and labels:
pure tubulin = test: Tubulin polymerization test with pure tubulin without GTP; assay type: biochemical, bovine; conditions: no GTP
Protocol: Medium is RPMI-1640 with L-glutamine, supplemented with 10% heat-inactivated fetal calf serum, 100 units/ml penicillin, and 100 μg/ml streptomycin (Gibco, Grand Island, N.Y.). Microtubule-associated protein (MAP)-rich tubulin, containing about 70% tubulin and 30% MAPs (#ML113), and highly purified tubulin (>99% pure, #TL238), both from bovine brain, are obtained from Cytoskeleton, Inc., Denver, Colo. PEM buffer (80 mM piperazine-N,N′-bis[2-ethanesulfonic acid], pH 6.9, 1 mM ethylene glycol-bis(β-aminoethyl ether)-N,N,N′,N′-tetraacetic acid, 1 mM magnesium chloride) and guanosine 5′-triphosphate (GTP) are also obtained from Cytoskeleton. [3H]paclitaxel, specific activity 14.7 Ci/mmol, is purchased from Moravek Biochemicals (Brea, Calif.). [^3H]vinblastine, specific activity 9.60 Ci/mmol and MicroSpin G-50 columns are obtained from Amersham Biosciences (Piscataway, N.J.). […] Other reagents are obtained from Sigma (St. Louis, Mo.).
Two variations of this procedure are done, one using MAP-rich tubulin and one using pure tubulin.
The procedure with pure tubulin is similar except for the following changes. […] The supernatant after centrifugation is dispensed to a 96-well plate already containing compounds. Each compound is tested in duplicate at six serial 3-fold dilutions starting at 24.3 μM. The plate reader is thermostated at 35°.

[1] = tested on: DLD1 Human Colon Carcinoma; test: Human tumor xenograft test, DLD1; assay type: in vivo; conditions: days 1, 5, 9, 13
Protocol: (§1) The ability of compounds of this invention to inhibit tumor growth in animals is studied in the athymic mouse xenograft standard pharmacological test. Female nu/nu mice in an outbred albino background are obtained from Charles River Laboratories (Wilmington, Mass.). Animals are injected subcutaneously on the flank with the desired tumor cell suspension. Several days later, mice with tumors of approximately 150 mm^3 are selected from those injected (staged) and randomly distributed into groups of 5-10. The day of staging is called day 0. Compounds of the invention, usually formulated in saline (exceptions are noted in tables), are administered to animals by intravenous injection or oral gavage on various schedules starting on day 0 or 1, as noted in the tables. The control group in each experiment is dosed with vehicle on the same schedule. Tumor size is measured every 3-7 days with calipers in two orthogonal dimensions, and tumor volume is calculated from the formula volume=[(length×width^2)/2].
(§2) Tumor/Control (T/C) is obtained by dividing the mean tumor volume of the treated group by the mean tumor volume of the control group on each measurement day. A treatment dose is defined as active if it produced a statistically significant T/C of 0.50 or less. A p value≦0.05, determined by one-side Student's t-test, is required for statistical significance. A treatment dose is defined as toxic if more than 10% of the animals died from a compound-related toxicity.

LOX Human Melanoma = test: Human tumor xenograft test, LOX; assay type: in vivo, athymic mice; conditions: for tumor growth inhibition (activity call): LOX melanoma; for T/C on day 0 / T/C on day 7 / T/C on day 13: LOX, days 1, 5, 9, 13
Protocol: as §1, §2

MAP-rich tubulin = test: Tubulin polymerization test with MAP-rich tubulin; assay type: biochemical, bovine; conditions: 0.3 μM compound, 20 min, fold enhancement over control
Method in brief: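 Bovine brain MAP-rich tubulin (1.3 mg/mL) in PEM buffer pH 6.9 with 1 mM GTP, compounds at 0.3 μM final (0.3% DMSO), 24° for 60 min. Turbidity read at 340 nm each minute, baseline-subtracted; mean A340 at 20 min divided by solvent control gives fold enhancement.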

[2] = 1 mg/kg intravenously on days 1, 5, 9, and 13
[3] = 6 and 3 mg/kg intravenously on days 1, 5, 9, and 13

Compound | absorbance increase, polymerization of pure tubulin (pure tubulin; 2.7 μM) | absorbance increase, polymerization of pure tubulin (pure tubulin; 8.1 μM) | A340 at 0 min (pure tubulin; 24.3 μM) | A340 at 5 min (pure tubulin; 24.3 μM) | A340 at 10 min (pure tubulin; 24.3 μM) | A340 at 15 min (pure tubulin; 24.3 μM) | A340 at 20 min (pure tubulin; 24.3 μM) | absorbance increase, polymerization of pure tubulin (pure tubulin; 24.3 μM, first 5 min) | T/C on day 0 ([1]; DLD1, 10 mg/kg IV) | T/C on day 7 ([1]; DLD1, 10 mg/kg IV) | T/C on day 14 ([1]; DLD1, 10 mg/kg IV) | T/C on day 21 ([1]; DLD1, 10 mg/kg IV) | T/C on day 0 ([1]; DLD1, 20 mg/kg IV) | T/C on day 7 ([1]; DLD1, 20 mg/kg IV) | tumor growth inhibition (activity call) (LOX Human Melanoma; [2]) | tumor growth inhibition (activity call) (LOX Human Melanoma; [3]) | T/C on day 0 (LOX Human Melanoma; 1 mg/kg IV) | T/C on day 7 (LOX Human Melanoma; 1 mg/kg IV) | T/C on day 13 (LOX Human Melanoma; 1 mg/kg IV) | A340 Compound/A340 Control (MAP-rich tubulin) | further results
C[C@H](Nc1c(-c2c(F)cc(OCCCN(C)C)cc2F)c(Cl)nc2ncnn12)C(F)(F)F.Cl [Example 1a, 5-chloro-6-{4-[3-(dimethylamino)propoxy]-2,6-difluorophenyl}-N-[(1S)-2,2,2-trifluoro-1-methylethyl][1,2,4]triazolo[1,5-a]pyrimidin-7-amine hydrogen chloride Salt] | no effect | lower and less rapid increase | 0 | 0.22 | 0.23 | 0.22 | 0.21 | rapid increase in absorbance | 1.00 | 0.63 | 0.51 | 0.58 | 1.00 | 0.31** | not at 1 mg/kg | active | 1.00 | 0.80 | 1.02 | 6.1 | T/C on day 0 ([1]; DLD1, 15 mg/kg IV): 1.00; T/C on day 7 ([1]; DLD1, 15 mg/kg IV): 0.21**; T/C on day 14 ([1]; DLD1, 15 mg/kg IV): 0.25; T/C on day 21 ([1]; DLD1, 15 mg/kg IV): 0.31; toxicity of treatment dose ([1]; DLD1 xenograft mice, 20 mg/kg IV, day 14): Toxic; T/C on day 0 (LOX Human Melanoma; 3 mg/kg IV): 1.00; T/C on day 7 (LOX Human Melanoma; 3 mg/kg IV): 0.13**; T/C on day 13 (LOX Human Melanoma; 3 mg/kg IV): 0.17*; T/C on day 0 (LOX Human Melanoma; 6 mg/kg IV): 1.00; T/C on day 7 (LOX Human Melanoma; 6 mg/kg IV): 0.12**; T/C on day 13 (LOX Human Melanoma; 6 mg/kg IV): 0.07**
CNCCCOc1cc(F)c(-c2c(Cl)nc3ncnn3c2N[C@@H](C)C(F)(F)F)c(F)c1.Cl [Example 2a, 5-Chloro-6-{2,6-difluoro-4-[3-(methylamino)propoxy]phenyl}-N-[(1S)-2,2,2-trifluoro-1-methylethyl][1,2,4]triazolo[1,5-a]pyrimidin-7-amine hydrogen chloride] | no effect | lower and less rapid increase | 0 | 0.25 | 0.24 | 0.23 | 0.22 | rapid increase in absorbance | 1.00 | 0.66 | 0.65 | 0.72 | 1.00 | 0.46* | not at 1 mg/kg | active | 1.00 | 0.81 | 0.95 | – | T/C on day 0 ([1]; DLD1, 15 mg/kg IV): 1.00; T/C on day 7 ([1]; DLD1, 15 mg/kg IV): 0.59; T/C on day 14 ([1]; DLD1, 15 mg/kg IV): 0.54; T/C on day 21 ([1]; DLD1, 15 mg/kg IV): 0.74; T/C on day 14 ([1]; DLD1, 20 mg/kg IV): 0.33; T/C on day 21 ([1]; DLD1, 20 mg/kg IV): 0.53; T/C on day 0 (LOX Human Melanoma; 3 mg/kg IV): 1.00; T/C on day 7 (LOX Human Melanoma; 3 mg/kg IV): 0.31**; T/C on day 13 (LOX Human Melanoma; 3 mg/kg IV): 0.36; T/C on day 0 (LOX Human Melanoma; 6 mg/kg IV): 1.00; T/C on day 7 (LOX Human Melanoma; 6 mg/kg IV): 0.17**; T/C on day 13 (LOX Human Melanoma; 6 mg/kg IV): 0.12**
CNCCCOc1cc(F)c(-c2c(Cl)nc3ncnn3c2NCC(F)(F)F)c(F)c1.Cl [Example 3a, 5-Chloro-6-{2,6-difluoro-4-[3-(methylamino)propoxy]phenyl}-N-(2,2,2-trifluoroethyl)[1,2,4]triazolo[1,5-a]pyrimidin-7-amine hydrogen chloride Salt] | no effect | lower and less rapid increase | 0 | 0.19 | 0.20 | 0.20 | 0.20 | rapid increase in absorbance | 1.00 | 0.77 | 0.75 | 0.84 | 1.00 | 0.55 | not at 1 mg/kg | active | 1.00 | 0.77 | 0.85 | – | T/C on day 14 ([1]; DLD1, 20 mg/kg IV): 0.56; T/C on day 21 ([1]; DLD1, 20 mg/kg IV): 0.73; T/C on day 0 ([1]; DLD1, 25 mg/kg IV): 1.00; T/C on day 7 ([1]; DLD1, 25 mg/kg IV): 0.59; T/C on day 14 ([1]; DLD1, 25 mg/kg IV): 0.46; T/C on day 21 ([1]; DLD1, 25 mg/kg IV): 0.60; T/C on day 0 (LOX Human Melanoma; 3 mg/kg IV): 1.00; T/C on day 7 (LOX Human Melanoma; 3 mg/kg IV): 0.34*; T/C on day 13 (LOX Human Melanoma; 3 mg/kg IV): 0.38; T/C on day 0 (LOX Human Melanoma; 6 mg/kg IV): 1.00; T/C on day 7 (LOX Human Melanoma; 6 mg/kg IV): 0.22**; T/C on day 13 (LOX Human Melanoma; 6 mg/kg IV): 0.07**
C[C@H](Nc1c(-c2c(F)cc(OCCCO)cc2F)c(Cl)nc2ncnn12)C(F)(F)F [Example 20, 3-[4-(5-Chloro-7-{[(1S)-2,2,2-trifluoro-1-methylethyl]amino}[1,2,4]triazolo[1,5-a]pyrimidin-6-yl)-3,5-difluorophenoxy]propan-1-ol] | – | – | 0 | 0.03 | 0.03 | 0.03 | 0.03 | – | – | – | – | – | – | – | – | – | – | – | – | – | –
C[C@H](Nc1c(-c2c(F)cc(OCCCN(C)C)cc2F)c(Br)nc2ncnn12)C(F)(F)F [Example 25, 5-Bromo-6-{4-[3-(dimethylamino)propoxy]-2,6-difluorophenyl}-N-[(1S)-2,2,2-trifluoro-1-methylethyl][1,2,4]triazolo[1,5-a]pyrimidin-7-amine] | no effect | lower and less rapid increase | 0 | 0.22 | 0.23 | 0.22 | 0.22 | rapid increase in absorbance | – | – | – | – | – | – | – | – | – | – | – | 7.2 | –
OCCCOc1cc(F)c(-c2c(Cl)nc3ncnn3c2C2CCCCCC2)c(F)c1 [Example 30, 3-[4-(5-Chloro-7-cycloheptyl[1,2,4]triazolo[1,5-a]pyrimidin-6-yl)-3,5-difluorophenoxy]propan-1-ol] | – | – | 0 | 0.02 | 0.01 | 0.01 | 0.01 | – | – | – | – | – | – | – | – | – | – | – | – | – | –
CNCCCOc1cc(F)c(-c2c(Cl)nc3ncnn3c2C2CCCCCC2)c(F)c1.O=C(O)C(F)(F)F [Example 32, 3-[4-(5-Chloro-7-cycloheptyl[1,2,4]triazolo[1,5-a]pyrimidin-6-yl)-3,5-difluorophenoxy]-N-methylpropan-1-amine trifluoroacetic acid salt] | no effect | lower and less rapid increase | 0 | 0.26 | 0.26 | 0.25 | 0.25 | rapid increase in absorbance | – | – | – | – | – | – | – | – | – | – | – | – | –
CC(=O)O[C@H]1C(=O)[C@@]2(C)[C@H]([C@H](OC(=O)c3ccccc3)[C@]3(O)C[C@H](OC(=O)[C@H](O)[C@@H](NC(=O)c4ccccc4)c4ccccc4)C(C)=C1C3(C)C)[C@]1(OC(C)=O)CO[C@@H]1C[C@@H]2O [Paclitaxel, reference compound] | – | – | 0 | 0 | 0 | 0.01 | 0.01 | – | – | – | – | – | – | – | – | – | – | – | – | 8.5 | –
CC[C@]1(O)C[C@H]2CN(CCc3c([nH]c4ccccc34)[C@@](C(=O)OC)(c3cc4c(cc3OC)N(C=O)[C@H]3[C@@](O)(C(=O)OC)[C@H](OC(C)=O)[C@]5(CC)C=CCN6CC[C@]43[C@@H]65)C2)C1 [Vincristine, reference compound] | – | – | 0 | 0.01 | 0.01 | 0 | 0 | – | – | – | – | – | – | – | – | – | – | – | – | 0 | –
